# In PubChem BioAssay AID1963845 (Molecular Pharmacology Branch, DTP, NCI, 2024):
# System: 429239-143-T-J1-PDC complex spheroid viability
# Assay: Anticancer human tumor 429239-143-T-J1-PDC patient-derived small cell lung carcinoma cell line growth inhibition [POLQ]
# Conditions: for IC50: curve of first compound; for viability, T/C: stronger effect = lower value
# Summary of the method: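 Growth inhibition in 3D: complex spheroids (tumor PDC, HUVEC, MSC) treated with POLQ inhibitor combinations; where Cmax unknown, highest tested concentration 10 microM, except SN-38 at 1 microM.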
# [1] = second compound 0.0316 µM, first compound 0.0316 µM
# [2] = second compound 0.0316 µM, first compound 0.1 µM
# [3] = second compound 0.0316 µM, first compound 0.316 µM
# [4] = second compound 0.0316 µM, first compound 1 µM
# [5] = second compound 0.0316 µM, first compound 3.16 µM
# [6] = second compound 0.0316 µM, first compound 10 µM
# [7] = second compound 0.1 µM, first compound 0.0316 µM
# [8] = second compound 0.1 µM, first compound 0.1 µM
# [9] = second compound 0.1 µM, first compound 0.316 µM
# [10] = second compound 0.1 µM, first compound 1 µM
# [11] = second compound 0.1 µM, first compound 3.16 µM
# [12] = second compound 0.1 µM, first compound 10 µM
# [13] = second compound 0.316 µM, first compound 0.0316 µM
# [14] = second compound 0.316 µM, first compound 0.1 µM
# [15] = second compound 0.316 µM, first compound 0.316 µM
# [16] = second compound 0.316 µM, first compound 1 µM
# [17] = second compound 0.316 µM, first compound 3.16 µM
# [18] = second compound 0.316 µM, first compound 10 µM
# [19] = second compound 1 µM, first compound 0.0316 µM
# [20] = second compound 1 µM, first compound 0.1 µM
# [21] = second compound 1 µM, first compound 0.316 µM
# [22] = second compound 1 µM, first compound 1 µM
# [23] = second compound 1 µM, first compound 3.16 µM
# [24] = second compound 1 µM, first compound 10 µM
# [25] = second compound 3.16 µM, first compound 0.0316 µM
# [26] = second compound 3.16 µM, first compound 0.1 µM
# [27] = second compound 3.16 µM, first compound 0.316 µM
# [28] = second compound 3.16 µM, first compound 1 µM
# [29] = second compound 3.16 µM, first compound 3.16 µM
# [30] = second compound 3.16 µM, first compound 10 µM
# [31] = second compound 10 µM, first compound 0.0316 µM
# [32] = second compound 10 µM, first compound 0.1 µM
# [33] = second compound 10 µM, first compound 0.316 µM
# [34] = second compound 10 µM, first compound 1 µM
# [35] = second compound 10 µM, first compound 3.16 µM
# [36] = second compound 10 µM, first compound 10 µM
# 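Further: luminescence signal used as surrogate measure of viable cells; spheroids exposed to compounds for seven days before readout.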
# 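Wherever viability, T/C is given: 100% = DMSO vehicle control viability as luminescence relative to vehicle.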
compound,measurement,setting,value
CC1COCCN1c1cc(C2(S(C)(=N)=O)CC2)nc(-c2ccnc3[nH]ccc23)n1 (centres undefined) + Nc1ccc(C#CCN(C(=O)Cc2ncc(C(F)(F)F)cc2C(F)(F)F)c2ccc(F)cc2)nn1,IC50,second compound 0.0316 µM,> 10 µM
same,IC50,second compound 0.1 µM,9.98 µM
same,IC50,second compound 0.316 µM,9.92 µM
same,IC50,second compound 1 µM,> 10 µM
same,IC50,second compound 3.16 µM,8.71 µM
same,IC50,second compound 10 µM,7.19 µM
same,"viability, T/C",[1],90.4%
same,"viability, T/C",[2],105%
same,"viability, T/C",[3],100%
same,"viability, T/C",[4],91%
same,"viability, T/C",[5],80.4%
same,"viability, T/C",[6],53.3%
same,"viability, T/C",[7],109%
same,"viability, T/C",[8],104%
same,"viability, T/C",[9],94.6%
same,"viability, T/C",[10],95.2%
same,"viability, T/C",[11],84.8%
same,"viability, T/C",[12],49%
same,"viability, T/C",[13],99.9%
same,"viability, T/C",[14],97.7%
same,"viability, T/C",[15],97.2%
same,"viability, T/C",[16],92.5%
same,"viability, T/C",[17],77.2%
same,"viability, T/C",[18],49.6%
same,"viability, T/C",[19],113%
same,"viability, T/C",[20],91.2%
same,"viability, T/C",[21],90.2%
same,"viability, T/C",[22],90.2%
same,"viability, T/C",[23],79.2%
same,"viability, T/C",[24],51.6%
same,"viability, T/C",[25],99.1%
same,"viability, T/C",[26],86.8%
same,"viability, T/C",[27],90.7%
same,"viability, T/C",[28],95.2%
same,"viability, T/C",[29],79.6%
same,"viability, T/C",[30],46%
same,"viability, T/C",[31],95.5%
same,"viability, T/C",[32],91.4%
same,"viability, T/C",[33],101%
same,"viability, T/C",[34],83.9%
same,"viability, T/C",[35],79.7%
same,"viability, T/C",[36],38.5%
COc1ccc([C@@H](O)c2cc(-c3ncnc4cc(N5CCOCC5)ccc34)c(F)cc2Cl)nn1 + Nc1ccc(C#CCN(C(=O)Cc2ncc(C(F)(F)F)cc2C(F)(F)F)c2ccc(F)cc2)nn1,IC50,second compound 0.0316 µM,9.31 µM
same,IC50,second compound 0.1 µM,9.66 µM
same,IC50,second compound 0.316 µM,8.87 µM
same,IC50,second compound 1 µM,> 10 µM
same,IC50,second compound 3.16 µM,8.13 µM
same,IC50,second compound 10 µM,7.29 µM
same,"viability, T/C",[1],92%
same,"viability, T/C",[2],103%
same,"viability, T/C",[3],102%
same,"viability, T/C",[4],98.8%
same,"viability, T/C",[5],90.1%
same,"viability, T/C",[6],47.2%
same,"viability, T/C",[7],97.8%
same,"viability, T/C",[8],105%
same,"viability, T/C",[9],101%
same,"viability, T/C",[10],94.3%
same,"viability, T/C",[11],86.1%
same,"viability, T/C",[12],48.4%
same,"viability, T/C",[13],107%
same,"viability, T/C",[14],101%
same,"viability, T/C",[15],102%
same,"viability, T/C",[16],112%
same,"viability, T/C",[17],88.8%
same,"viability, T/C",[18],45.5%
same,"viability, T/C",[19],97.8%
same,"viability, T/C",[20],86.6%
same,"viability, T/C",[21],97%
same,"viability, T/C",[22],100%
same,"viability, T/C",[23],84%
same,"viability, T/C",[24],55.8%
same,"viability, T/C",[25],106%
same,"viability, T/C",[26],102%
same,"viability, T/C",[27],96.8%
same,"viability, T/C",[28],96.6%
same,"viability, T/C",[29],78.7%
same,"viability, T/C",[30],43.5%
same,"viability, T/C",[31],95.2%
same,"viability, T/C",[32],94.4%
same,"viability, T/C",[33],108%
same,"viability, T/C",[34],97%
same,"viability, T/C",[35],72.1%
same,"viability, T/C",[36],41.6%
